Activity calls are given as the source filed them. The rule behind the calls is not given here.

For the assay, the target named is Botulinum neurotoxin type A (Clostridium botulinum (strain Hall / ATCC 3502 / NCTC 13319 / Type A)) (UniProt P0DPI1). The assay is described as follows: Confirmatory dose response, Clostridium botulinum neurotoxin type A protease inhibitors, flow cytometry (AID 602176). The following applies: multiplex microsphere protease substrate cleavage. For orientation: A flow cytometer gives signals particle by particle.
Chain of Botulinum neurotoxin type A (Clostridium botulinum (strain Hall / ATCC 3502 / NCTC 13319 / Type A)) (P0DPI1 whole entry, looked up): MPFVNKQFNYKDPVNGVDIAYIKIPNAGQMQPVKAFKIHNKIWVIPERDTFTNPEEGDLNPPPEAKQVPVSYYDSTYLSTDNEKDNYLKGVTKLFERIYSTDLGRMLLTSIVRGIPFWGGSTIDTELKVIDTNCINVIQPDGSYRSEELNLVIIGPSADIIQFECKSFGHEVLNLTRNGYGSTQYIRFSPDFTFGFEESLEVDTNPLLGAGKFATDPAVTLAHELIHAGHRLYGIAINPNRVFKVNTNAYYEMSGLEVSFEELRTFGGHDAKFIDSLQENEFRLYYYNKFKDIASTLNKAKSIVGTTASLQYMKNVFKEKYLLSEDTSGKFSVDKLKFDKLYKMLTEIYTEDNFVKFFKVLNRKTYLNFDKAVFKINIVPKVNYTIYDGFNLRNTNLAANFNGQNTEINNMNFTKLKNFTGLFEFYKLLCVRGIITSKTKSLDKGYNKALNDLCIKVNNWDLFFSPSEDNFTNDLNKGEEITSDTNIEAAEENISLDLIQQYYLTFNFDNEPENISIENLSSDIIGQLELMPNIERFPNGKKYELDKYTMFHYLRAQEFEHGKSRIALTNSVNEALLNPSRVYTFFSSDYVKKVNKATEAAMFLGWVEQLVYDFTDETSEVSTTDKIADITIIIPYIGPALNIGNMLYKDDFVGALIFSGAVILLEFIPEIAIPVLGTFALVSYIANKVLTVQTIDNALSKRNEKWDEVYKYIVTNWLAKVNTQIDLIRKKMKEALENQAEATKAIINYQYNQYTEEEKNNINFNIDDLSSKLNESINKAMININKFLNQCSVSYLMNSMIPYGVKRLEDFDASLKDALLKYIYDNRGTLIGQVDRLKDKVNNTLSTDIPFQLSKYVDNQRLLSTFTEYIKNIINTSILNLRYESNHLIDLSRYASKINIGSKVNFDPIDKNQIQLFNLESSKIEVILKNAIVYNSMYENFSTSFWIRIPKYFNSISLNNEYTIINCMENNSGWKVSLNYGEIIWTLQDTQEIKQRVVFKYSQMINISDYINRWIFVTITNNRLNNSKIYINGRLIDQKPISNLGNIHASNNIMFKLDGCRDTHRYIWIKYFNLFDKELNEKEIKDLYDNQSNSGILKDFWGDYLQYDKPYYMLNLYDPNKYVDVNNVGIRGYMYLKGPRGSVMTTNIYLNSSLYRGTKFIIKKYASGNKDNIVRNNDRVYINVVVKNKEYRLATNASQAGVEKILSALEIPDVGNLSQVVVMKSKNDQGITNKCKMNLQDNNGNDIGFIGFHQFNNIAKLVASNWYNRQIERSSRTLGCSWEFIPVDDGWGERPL

The term EC50 denotes the concentration that produces a half-maximal response. On to `Oc1[nH]c(N=C2N=c3ccccc3=N2)c2ccccc12`, for which the EC50 was > 20 µM (inactive).

Source of the values: PubChem BioAssay AID602176 (NMMLSC, 2012).
